Measured values published in patent US4820694A, “Modifications of 3-O-demethylmycinose in macrocin and lactenocin” (priority 1986, dated 1989).
Values after ≈ are worked out from the molar mass of the structure shown. Where two headings read alike, the source gives them in different places.

Assays:
[1] = tested on: Streptococcus pneumoniae Park I; test: microbe, parasite or virus in culture; type: cell-based; conditions: Streptococcus pneumoniae
Method: (§1) The MIC's in Table III were determined by standard agar-dilution assays. The MIC's in Table IV were obtained using conventional brothdilution microtiter tests.

[2] = tested on: Staphylococcus aureus S13E; test: microbe, parasite or virus in culture; type: cell-based; conditions: Staphylococcus aureus, S13E
Method: as §1

[3] = tested on: Staphylococcus aureus 19C; test: broth-dilution microtiter MIC test; type: cell-based; conditions: Staphylococcus aureus, 19C
Method: as §1

[4] = tested on: Pasteurella hemolytica 23C; test: broth-dilution microtiter MIC test; type: cell-based; conditions: Pasteurella, 23C
Method: as §1

[5] = tested on: Pasteurella multocida 60A; test: broth-dilution microtiter MIC test; type: cell-based; conditions: Pasteurella multocida, 60A
Method: as §1

[6] = tested on: Pasteurella multocida 17E; test: broth-dilution microtiter MIC test; type: cell-based; conditions: Pasteurella multocida, 17E
Method: as §1

[7] = tested on: Mycoplasma gallisepticum 15E; test: broth-dilution microtiter MIC test; type: cell-based; conditions: Mycoplasmoides gallisepticum, 15E
Method: as §1

Mycoplasma synoviae 40A = test: broth-dilution microtiter MIC test; type: cell-based; conditions: Mycoplasmopsis synoviae, 40A
Method: as §1

[8] = tested on: Pasteurella multocida 40G; test: broth-dilution microtiter MIC test; type: cell-based; conditions: Pasteurella multocida, 40G
Method: as §1

[9] = tested on: Mycoplasma gallisepticum 29C; test: broth-dilution microtiter MIC test; type: cell-based; conditions: Mycoplasmoides gallisepticum, 29C
Method: as §1

[10] = tested on: Pasteurella multocida 22A; test: broth-dilution microtiter MIC test; type: cell-based; conditions: Pasteurella multocida, 22A
Method: as §1

[11] = tested on: Pasteurella hemolytica 41D; test: broth-dilution microtiter MIC test; type: cell-based; conditions: Pasteurella, 41D
Method: as §1

[12] = tested on: Mycoplasma hyopneumoniae S5972; test: broth-dilution microtiter MIC test; type: cell-based; conditions: Mesomycoplasma hyopneumoniae, S5972
Method: as §1

[13] = tested on: Mycoplasma gallisepticum 36H; test: broth-dilution microtiter MIC test; type: cell-based; conditions: Mycoplasmoides gallisepticum, 36H; broth-dilution microtiter; read-out: MIC
Method: as §1

[14] = tested on: Bordetella bronchiseptica; test: broth-dilution microtiter MIC test; type: cell-based; conditions: Bordetella bronchiseptica; broth-dilution microtiter; read-out: MIC
Method: as §1

[15] = tested on: Pasteurella hemolytica 22C; test: broth-dilution microtiter MIC test; type: cell-based; conditions: Pasteurella, 22C
Method: as §1

Mycoplasma hyorhinis 29E = test: broth-dilution microtiter MIC test; type: cell-based; conditions: Mycoplasma, 29E
Method: as §1

[16] = tested on: Streptococcus pyogenes C203; test: protection of mice experimentally infected with S. pyogenes C203; type: in vivo; conditions: mice, mg/kg × 2, doses given 1 and 4 hours postinfection, read-out: ED50
How it was run: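 Activity is given as ED50, the mg/kg dose (×2) protecting half of the mice infected with S. pyogenes C203. Compound was dosed 1 and 4 h after infection.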

[17] = tested on: Streptococcus pyogenes C203; test: standard agar-dilution MIC assay; type: cell-based; conditions: Streptococcus pyogenes, C203
Method: as §1

[18] = tested on: Streptococcus Group D X66; test: standard agar-dilution MIC assay; type: cell-based; conditions: read-out: MIC
Method: as §1

[19] = tested on: Staphylococcus aureus X1.1; test: standard agar-dilution MIC assay; type: cell-based; conditions: Staphylococcus aureus, X1.1
Method: as §1

[20] = tested on: Staphylococcus aureus X400; test: standard agar-dilution MIC assay; type: cell-based; conditions: Staphylococcus aureus, X400
Method: as §1

[21] = tested on: Staphylococcus aureus V41; test: standard agar-dilution MIC assay; type: cell-based; conditions: Staphylococcus aureus, V41
Method: as §1

[22] = tested on: Staphylococcus epidermidis EPI1; test: standard agar-dilution MIC assay; type: cell-based; conditions: Staphylococcus epidermidis, EPI1
Method: as §1

[23] = tested on: Staphylococcus epidermidis 222; test: standard agar-dilution MIC assay; type: cell-based; conditions: Staphylococcus epidermidis, 222
Method: as §1

[24] = tested on: Haemophilus influenzae C.L.; test: standard agar-dilution MIC assay; type: cell-based; conditions: Haemophilus influenzae
Method: as §1

[25] = tested on: Klebsiella pneumoniae X68; test: standard agar-dilution MIC assay; type: cell-based; conditions: Klebsiella pneumoniae, X68; agar-dilution; read-out: MIC
Method: as §1

[26] = tested on: Haemophilus influenzae 76; test: standard agar-dilution MIC assay; type: cell-based; conditions: Haemophilus influenzae, 76
Method: as §1

[27] = tested on: Pseudomonas aeruginosa X239; test: standard agar-dilution MIC assay; type: cell-based; conditions: Pseudomonas aeruginosa, X239; agar-dilution; read-out: MIC
Method: as §1

Escherichia coli EC14 = test: standard agar-dilution MIC assay; type: cell-based; conditions: agar-dilution, read-out: MIC
Method: as §1

[28] = tested on: Streptococcus Group D 2041; test: standard agar-dilution MIC assay; type: cell-based; conditions: GROUPD2041
Method: as §1

Streptococcus sp. 19F = test: broth-dilution microtiter MIC test; type: cell-based; conditions: Streptococcus, SP.19F
Method: as §1

[29] = tested on: Pasteurella multocida 68C; test: broth-dilution microtiter MIC test; type: cell-based; conditions: Pasteurella multocida, 68C
Method: as §1

[30] = tested on: Streptococcus Group D 9960; test: standard agar-dilution MIC assay; type: cell-based; conditions: GROUPD9960, read-out: MIC
Method: as §1

[31] = broth-dilution microtiter, read-out: MIC

SMILES | MIC [1] [µg/mL] | MIC [2] [µg/mL] | MIC [3] [µg/mL] | MIC [4] [µg/mL] | MIC [5] [µg/mL] | MIC [6] [µg/mL] | MIC (Mycoplasma synoviae 40A) [µg/mL] | MIC [8] [µg/mL] | MIC [9] [µg/mL] | MIC [10] [µg/mL] | MIC [11] [µg/mL] | MIC [13] [µg/mL] | MIC [14] [µg/mL] | MIC [15] [µg/mL] | ED50 ([16]; C203, Oral) [mg/kg] | ED50 ([16]; C203, sc, Subcutaneous) [mg/kg] | MIC [17] [µg/mL] | MIC [18] [µg/mL] | MIC [19] [µg/mL] | MIC [20] [µg/mL] | other results
CCC1OC(=O)CC(O)C(C)C(OC2OC(C)C(O)C(N(C)C)C2O)C(CC=O)CC(C)C(=O)C=CC(C)=CC1COC1OC(C)C2OC(C)(C)OC2C1OC (stereo not drawn) [Compound 55, 3",4"-Isopropylidene Derivative of Lactenocin] | 8 (≈ 10 µM) | 2 (≈ 2.51 µM) | 3.12 (≈ 3.91 µM) | 50 (≈ 62.7 µM) | 50 (≈ 62.7 µM) | 25 (≈ 31.3 µM) | 3.12 (≈ 3.91 µM) | 25 (≈ 31.3 µM) | 0.39 (≈ 0.489 µM) | 25 (≈ 31.3 µM) | 50 (≈ 62.7 µM) | > 50 | > 50 | 50 (≈ 62.7 µM) | > 100 | > 10 | 1 (≈ 1.25 µM) | 32 (≈ 40.1 µM) | 2 (≈ 2.51 µM) | 4 (≈ 5.01 µM) | MIC [7, 31]: > 50 µg/mL; MIC [12]: 0.78 µg/mL (≈ 0.977 µM); MIC (Mycoplasma hyorhinis 29E): 50 µg/mL (≈ 62.7 µM); MIC [21]: 2 µg/mL (≈ 2.51 µM); MIC [22]: 2 µg/mL (≈ 2.51 µM); MIC [23]: 1 µg/mL (≈ 1.25 µM); MIC [24]: 16 µg/mL (≈ 20.1 µM); MIC [25]: > 128 µg/mL; MIC [26]: 16 µg/mL (≈ 20.1 µM); MIC [27]: > 128 µg/mL; MIC (Escherichia coli EC14): > 128 µg/mL; MIC [28]: 16 µg/mL (≈ 20.1 µM)
CCC1OC(=O)CC(O)C(C)C(OC2OC(C)C(O)C(N(C)C)C2O)C(CC=O)CC(C)C(=O)C=CC(C)=CC1COC1OC(C)C2OC(=O)OC2C1OC (stereo not drawn) [Compound 51, Lactenocin-3",4"-Carbonate Derivative] | 0.25 (≈ 0.319 µM) | 1 (≈ 1.28 µM) | 1.56 (≈ 1.99 µM) | 25 (≈ 31.9 µM) | 6.25 (≈ 7.97 µM) | 6.25 (≈ 7.97 µM) | 0.78 (≈ 0.995 µM) | 3.12 (≈ 3.98 µM) | 0.39 (≈ 0.498 µM) | 6.25 (≈ 7.97 µM) | 12.5 (≈ 15.9 µM) | > 50 | > 50 | 12.5 (≈ 15.9 µM) | > 100 | 1.1 | 0.25 (≈ 0.319 µM) | 2 (≈ 2.55 µM) | 1 (≈ 1.28 µM) | 2 (≈ 2.55 µM) | MIC [7]: 50 µg/mL (≈ 63.8 µM); MIC [12, 31]: 0.097 µg/mL (≈ 0.124 µM); MIC (Streptococcus sp. 19F): 3.12 µg/mL (≈ 3.98 µM); MIC (Mycoplasma hyorhinis 29E; [31]): 3.2 µg/mL (≈ 4.08 µM); MIC [29]: 12.5 µg/mL (≈ 15.9 µM); MIC [21]: 2 µg/mL (≈ 2.55 µM); MIC [22]: 1 µg/mL (≈ 1.28 µM); MIC [23]: 0.5 µg/mL (≈ 0.638 µM); MIC [24]: 8 µg/mL (≈ 10.2 µM); MIC [30]: 2 µg/mL (≈ 2.55 µM); MIC [25]: > 128 µg/mL; MIC [26]: 8 µg/mL (≈ 10.2 µM); MIC [27]: > 128 µg/mL; MIC (Escherichia coli EC14): > 128 µg/mL
